According to US6686382B2, “Sulfonamides and derivatives thereof that modulate the activity of endothelin” (Encysive Pharmaceuticals Inc., priority 1999, dated 2004):

Assays:
[1] = system: ETA receptors and ETB receptors; assay: Endothelin binding inhibition, ETA (TE 671) and ETB (transfected COS7) receptors: selectivity; design: species or system human; conditions: antagonism of ETA receptors over ETB receptors
Text: (§1) Compounds that are potential endothelin antagonists are identified by testing their ability to compete with ^125I-labeled ET-1 for binding to human ETA receptors or ETB receptors present on isolated cell membranes. The effectiveness of the test compound as an antagonist or agonist of the biological tissue response of endothelin can also be assessed by measuring the effect on endothelin induced contraction of isolated rat thoracic aortic rings. The ability of the compounds to act as antagonists or agonists for ETB receptors can be assess by testing the ability of the compounds are to inhibit endothelin-1 induced prostacyclin release from cultured bovine aortic endothelial cells.
(§2) A. Endothelin Binding Inhibition—Binding Test #1: Inhibition of Binding to ETA Receptors
(§3) TE 671 cells (ATCC Accession No. HTB 139) express ETA receptors. These cells were grown to confluence in T-175 flasks. Cells from multiple flasks were collected by scraping, pooled and centrifugedfor 10 min at 190×g. The cells were resuspended in phosphate buffered saline (PBS) containing 10 mM EDTA using a Tenbroeck homogenizer. The suspension was centrifuged at 4° C. at 57,800×g for 15 min, the pellet was resuspended in 5 ml of buffer A (5 mM HEPES buffer, pH 7.4 containing aprotinin (100 KIU/ml)) and then frozen and thawed once. 5 ml of Buffer B (5 mM HEPES Buffer, pH 7.4 containing 10 mM MnCl2 and 0.001% deoxyribonuclease Type 1) was added, the suspension mixed by inversion and then incubated at 37° C. for 30 minutes. The mixture was centrifuged at 57,800×g as described above, the pellet washed twice with buffer A and then resuspended in buffer C (30 mM HEPES buffer, pH 7.4 containing aprotinin (100 KIU/ml) to give a final protein concentration of 2 mg/ml and stored at −70° C. until use.
(§4) The membrane suspension was diluted with binding buffer (30 mM HEPES buffer, pH 7.4 containing 150 mM NaCl, 5 mM MgCl2, 0.5% Bacitracin) to a concentration of 8 μg/50 μl. ^125I-endothelin-1 (3,000 cpm, […]) was added to 50 μL of either: (A) endothelin-1 (for non specific binding) to give a final concentration 80 nM); (B) binding buffer (for total binding); or (C) a test compound (final concentration 1 nM to 100 μM). The membrane suspension (50 μL), containing up to 8 μg of membrane protein, was added to each of (A), (B), or (C). Mixtures were shaken, and incubated at 4° C. for 16-18 hours, and then centrifuged at 4° C. for 25 min at 2,500×g. Alternatively, the incubation was conducted at 24° C. […] This, must be kept in mind when comparing IC50 concentrations among compounds provided herein.
(§5) The supernatant, containing unbound radioactivity, was decanted and the pellet counted on a Genesys multiwell gamma counter. The degree of inhibition of binding (D) was calculated according to the following equation: [formula]
B. Endothelin Binding Inhibition—Binding Test #2: Inhibition of Binding to ETB Receptors
COS7 cells were transfected with DNA encoding the ETB receptor, The resulting cells, which express the human ETB receptor, were grown to confluence in T-150 flasks. Membrane was prepared as described above. The binding assay was performed as described above using the membrane preparation diluted with binding buffer to a concentration of 1 μg/50 μl.
Briefly, the COS7 cells, described above, that had been transfected with DNA encoding the ETB receptor and express the human ETB receptor on their surfaces were grown to confluence in T-175 flasks. […]

[2] = target: T1, human ETA receptors (Homo sapiens, UniProt P25101); assay: Endothelin binding inhibition, Binding Test #1: inhibition of binding to ETA receptors (TE 671 cell membranes); conditions: relative to N-(4-chloro-3-methyl-5-isoxazolyl)-2-{[3,4-(methylenedioxy)-6-methylphenyl)acetyl]-thiophene-3-sulfonamide (= 1.0)
T1 construct: endogenous in cells; host or cells: TE 671 cells (ATCC HTB 139), membrane preparation
T1 sequence (P25101 21-427): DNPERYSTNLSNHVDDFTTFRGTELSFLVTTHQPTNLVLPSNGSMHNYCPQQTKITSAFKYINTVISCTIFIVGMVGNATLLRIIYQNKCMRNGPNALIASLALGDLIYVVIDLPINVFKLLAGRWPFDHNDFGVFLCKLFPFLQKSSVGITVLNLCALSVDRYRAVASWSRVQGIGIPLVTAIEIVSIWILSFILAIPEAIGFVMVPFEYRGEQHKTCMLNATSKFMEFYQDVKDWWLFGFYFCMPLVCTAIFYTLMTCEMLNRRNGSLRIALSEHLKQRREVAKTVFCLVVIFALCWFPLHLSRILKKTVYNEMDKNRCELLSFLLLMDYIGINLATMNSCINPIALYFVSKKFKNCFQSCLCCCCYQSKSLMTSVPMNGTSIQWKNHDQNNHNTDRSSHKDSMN
Text: as §1, §2, §3, §4, §5
Each test was generally performed in triplicate.

SMILES	Selectivity (IC50 for ETB/IC50 for ETA) [1]	ETA ACTIVITY (ETA antagonist activity relative to reference compound) [2]
CC(=O)c1cc(C)cc(C)c1NC(=O)c1sccc1S(=O)(=O)Nc1onc(C)c1C [Compound 7, N-(2-acetyl-4,6-dimethylphenyl)-3-{[(3,4 dimethyl-5-isoxazolyl)amino]sulfonyl}-2-thiophenecarboxamide]	441,000	18.1
Cc1cc(C)c(NC(=O)c2sccc2S(=O)(=O)Nc2onc(C)c2Cl)c(Cl)c1 [Compound 34, N-(2-chloro-4,6-dimethylphenyl)-3-{[(4-chloro-3-methyl-5-isoxazolyl)amino]sulfonyl}2-thiophenecarboxamide]	166,000	20.7
Cc1cc(C)c(NC(=O)c2sccc2S(=O)(=O)Nc2onc(C)c2Cl)c(S(C)(=O)=O)c1 [Compound 42, 3-{[(4-chloro-3-methyl-5-isoxazolyl)amino]sulfonyl)-N-[2,4-dimethyl-6-(methylsulfonyl)phenyl]-2-thiophenecarboxamide]	456,000	64.1
Cc1cc2c(cc1CC(=O)c1sccc1S(=O)(=O)Nc1onc(C)c1Cl)OCO2 [N-(4-chloro-3-methyl-5-isoxazolyl)-2-{[3,4-(methylenedioxy)-6-methylphenyl)acetyl]-thiophene-3-sulfonamide, reference compound]	20,950	1.0
